Experimental data from patent US11447529B2, “Microcin MccY, and preparation method and use thereof” (South China Agricultural University, priority 2021, dated 2022).

Assays:
Assay in all cases: Bacteriostatic ring test on double-layer agar
Format in all cases: cell-based
[1] = tested on: Salmonella enteritidis (strain name: CVCC3377); settings: 50 μL filtrate (combination 25 uL + 25 uL), double-layer LB agar, 37° C., 18 h; FIG. 1
Method: (§1) Salmonella Pullorum (strain name: CVCC1800), Salmonella enteritidis (strain name: CVCC3377) and Salmonella typhimurium (strain name: ATCC14028) were respectively resuscitated in a LB agar plate (with the formula as shown in Table 4) (cultured in a 5% CO2 incubator at 37° C. for 16 h). Single colonies were picked and subjected to shaking culture until OD600=0.8. The bacterial solution was inoculated into a soft agar medium containing 5% LB (with the formula as shown in Table 5) at about 42° C. in a proportion of 1:1,000, and then spread onto a LB agar plate to form an upper and lower double-layer agar medium. 30 min later, after the soft agar was cooled and solidified, a mixed solution of 50 μL of the filtrate obtained in Example 1 (the Microcin MccY), 50 μL of the filtrate obtained in Example 2, 50 μL of the filtrate obtained in Example 3 (the Microcin MccJ25), 25 uL of the filtrate obtained in Example 1 (the Microcin MccY) and 25 uL of the filtrate obtained in Example 3 (the Microcin MccJ25) was taken and added into the upper and lower double-layer agar medium containing Salmonella Pullorum, Salmonella enteritidis and Salmonella typhimurium. The upper and lower double-layer agar medium was then placed into a 5% CO2 bacterial incubator at 37° C. for static culture for 18 h, and then observed for a bacteriostatic ring.

[2] = tested on: Salmonella london (strain name: CVCC2206); settings: 50 μL filtrate (combination 25 uL + 25 uL), double-layer LB agar, 37° C., 18 h; FIG. 2
Method: (§2) Salmonella kentucky (strain name: BNCC239114), Salmonella Infantis (strain name: CMCC50041) and Salmonella london (strain name: CVCC2206) were respectively resuscitated in a LB agar plate (with the formula as shown in Table 4) (cultured in a 5% CO2 incubator at 37° C. for 16 h). Single colonies were picked and subjected to shaking culture until OD600=0.8. The bacterial solution was inoculated into a soft agar medium containing 5% LB (with the formula as shown in Table 5) at about 42° C. in a proportion of 1:1,000, and then spread onto a LB agar plate to form an upper and lower double-layer agar medium. 30 min later, after the soft agar was cooled and solidified, a mixed solution of 50 μL of the filtrate obtained in Example 1 (the Microcin MccY), 50 μL of the filtrate obtained in Example 2, 50 μL of the filtrate obtained in Example 3 (the Microcin MccJ25), 25 uL of the filtrate obtained in Example 1 (the Microcin MccY) and 25 uL of the filtrate obtained in Example 3 (the Microcin MccJ25) was taken and added into the upper and lower double-layer agar medium containing […]. The upper and lower double-layer agar medium was then placed into a 5% CO2 bacterial incubator at 37° C. for static culture for 18 h, and then observed for a bacteriostatic ring.

[3] = tested on: Salmonella Infantis (strain name: CMCC50041); settings: 50 μL filtrate (combination 25 uL + 25 uL), double-layer LB agar, 37° C., 18 h; FIG. 2
Method: as §2

[4] = tested on: Salmonella kentucky (strain name: BNCC239114); settings: 50 μL filtrate (combination 25 uL + 25 uL), double-layer LB agar, 37° C., 18 h; FIG. 2
Method: as §2

[5] = tested on: Salmonella Pullorum (strain name: CVCC1800); settings: 50 μL filtrate (combination 25 uL + 25 uL), double-layer LB agar, 37° C., 18 h; FIG. 1
Method: as §1

[6] = tested on: Salmonella typhimurium (strain name: ATCC14028); settings: 50 μL filtrate (combination 25 uL + 25 uL), double-layer LB agar, 37° C., 18 h; FIG. 1
Method: as §1

[7] = tested on: Shigella sonnei (strain name: CMCC51592); settings: 50 μL filtrate, double-layer LB agar, 37° C., 18 h; FIG. 3
Method: (§3) Shigella flexneri (strain name: CMCC51572) and Shigella sonnei (strain name: CMCC51592) were respectively resuscitated in a LB agar plate (with the formula as shown in Table 4) (cultured in a 5% CO2 incubator at 37° C. for 16 h). Single colonies were picked and subjected to shaking culture until OD600=0.8. The bacterial solution was inoculated into a soft agar medium containing 5% LB (with the formula as shown in Table 5) at about 42° C. in a proportion of 1:1,000, and then spread onto a LB agar plate to form an upper and lower double-layer agar medium. 30 min later, after the soft agar was cooled and solidified, each 50 μL of the filtrate obtained in Example 1 (the Microcin MccY) and methanol were respectively taken and added into the upper and lower double-layer agar medium containing Shigella flexneri and Shigella sonnei (the control group was added with the same amount of the filtrate obtained in Example 2). The upper and lower double-layer agar medium was then placed into a 5% CO2 bacterial incubator at 37° C. for static culture for 18 h, and then observed for a bacteriostatic ring.

[8] = tested on: Shigella flexneri (strain name: CMCC51572); settings: 50 μL filtrate, double-layer LB agar, 37° C., 18 h; FIG. 3
Method: as §3

Which “bacteriostatic effect (bacteriostatic ring) against Salmonella enteritidis” value [1] does the source give for “MccJ25: Known Microcin MccJ25 (SEQ ID NO.10); tested as filtrate expressed by pET-28a(+)-MccJ25-containing BL21(DE3) bacteria (GGAGHVPEYFVGIGTPISFYG; Primer) [reference compound]” here?
Its value is “inhibitory effect”.

What about the “bacteriostatic effect (bacteriostatic ring) against Salmonella london” value [2] of the same substance?
Its value is “no inhibitory effect”.

What about the “bacteriostatic effect (bacteriostatic ring) against Salmonella Infantis” value [3] of the same substance?
Its value is “no inhibitory effect”.

And the “bacteriostatic effect (bacteriostatic ring) against Salmonella kentucky” value [4]?
The value was “no inhibitory effect”.

How did the “bacteriostatic effect (bacteriostatic ring) against Salmonella Pullorum” value [5] turn out when “MccY: Microcin with amino acid sequence GGRGHIAEYFSGPITQVSFYG (SEQ ID NO.1); tested as filtrate expressed by pET-28a(+)-MccY-containing BL21(DE3) bacteria (Primer)” was run?
The value was “inhibitory effects”.

And the “bacteriostatic effect (bacteriostatic ring) against Salmonella typhimurium” value [6]?
Its value is “inhibitory effects”.

What about the “bacteriostatic effect (bacteriostatic ring) against Salmonella london” value [2] of the same substance?
Its value is “inhibitory effects”.

And the “bacteriostatic effect (bacteriostatic ring) against Salmonella Infantis” value [3]?
Its value is “inhibitory effects”.

What about the “bacteriostatic effect (bacteriostatic ring) against Salmonella kentucky” value [4] of the same substance?
The value was “inhibitory effects”.

What about the “bacteriostatic effect (bacteriostatic ring) against Shigella sonnei” value [7] of the same substance?
Its value is “sensitive”.

And the “bacteriostatic effect (bacteriostatic ring) against Shigella flexneri” value [8]?
The value was “not sensitive”.
